Data reported in US20180133203A1, “METHODS OF TREATING LIVER DISEASE” (Gilead Sciences, Inc., priority 2016, published 2018).

How the values were obtained:
CDHFD/NaNO2 rats = assay: Liver hydroxyproline content in CDHFD/NaNO2 rat model of NASH; format: in vivo, male Wistar rats; details: vs vehicle-treated CDHFD/NaNO2 rats; Formula (I) 0.2% in diet, Formula (III) 30 mg/kg/day, week 4 to 14
Description: The following study was conducted to evaluate the efficacy of the combination of an ASK1 inhibitor and an FXR agonist in a rodent model of non-alcoholic steatohepatitis (NASH), relative to the efficacy of the individual agents alone in the model. NASH was induced in male Wistar rats by administration of a choline-deficient high fat diet (CDHFD) combined with the chronic administration of sodium nitrite (CDHFD/NaNO2). The model capitalizes on the “two hit theory” of NASH by inducing both metabolic dysfunction (CDHFD) and oxidative stress (NaNO2) in the liver to result in hepatic fibrosis that is similar in character and severity to that seen in patients with advanced NASH. Rats were fed CDHFD for a total of 14 weeks and were administered NaNO2 from week 4 to 14. […] The following endpoints were assessed at the completion of the 14 week study: i) liver fibrosis measured by liver hydroxyproline (OHP) content and by quantitative morphometric analysis of collagen content by Picosirius red (PSR) staining; ii) myofibroblast activation in liver sections as measured by quantitative IHC of the myofibroblast marker desmin; and, iii) Col1a1 and Timp1 in liver tissue measured by RT-PCR. […] All endpoints were assessed at the completion of the 14 week study protocol. […] The hydroxyproline content was determined photometrically by measuring the absorbance at 560 nm. […]

FFD mice = assay: Plasma bile acids by LC-MS/MS in FFD mouse model of NASH; format: in vivo, male C57BL/6 mice; details: Formula (I) 0.15% admixture in diet, Formula (III) 10 mg/kg PO QD, months 7-10
Description: The following study was conducted to evaluate the efficacy of the combination of an ASK1 inhibitor and an FXR agonist in a mouse model of non-alcoholic steatohepatitis (NASH), relative to the efficacy of the individual agents alone in the model. NASH was induced in male C57BL/6 mice by chronic administration of a “fast food” diet (FFD) high in saturated fats, cholesterol and sugars for a total of 10 months, whereas lean control animals were maintained on a normal chow diet. A NASH phenotype was established in FFD mice compared to control mice by 7 months, and was characterized by obesity, hypercholesterolemia, and AST/ALT elevation; and by histological features of NASH such as hepatocellular macrovesicular steatosis and ballooning degeneration. See Charlton M, et al. Fast food diet mouse: novel small animal model of NASH with ballooning, progressive fibrosis, and high physiological fidelity to the human condition. American journal of physiology. Gastrointestinal and liver physiology 2011; 301 (5):G825-34. […] Endpoint analyses included morphometric quantification of liver steatosis (% of steatotic area), liver cholesterol content, serum ALT/AST levels, serum bile acid levels, and nanostring evaluation of gene expression. […] Plasma samples were sent to Metabolon, Inc. (Durham, N.C.) for quantification of primary and secondary bile acids and their conjugates by LC-MS/MS.

Compound | reduction of liver hydroxyproline content (CDHFD/NaNO2 rats) | reduction in plasma bile acid levels (FFD mice)
O=C(O)c1ccnc(N2CC(O)(c3ccc(OCc4c(-c5c(Cl)cccc5Cl)noc4C4CC4)cc3Cl)C2)c1 [Formula (III)] | did not significantly reduce | 46%
O=C(Nc1cccc(-c2nncn2C2CC2)c1)c1cc(-n2cnc(C3CC3)c2)ccn1 [Formula (I)] | did not significantly reduce | 52%
